From publication PMC5218480 (PLoS ONE, 2017) come the findings set out here.

“And” between values parts separate entries of the source, which are not always exact repeats. Identical values can stand only once.

This assay concerns MOLM-13 xenograft. The experiment in a line: In vivo model of AML: MOLM-13 xenograft, time to endpoint (TTE) and survival.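 As to all read-outs here: female Crl:NU(NCr)-Foxn1^nu mice bearing subcutaneous flank MOLM-13 tumors, caliper-measured twice per week, volume as width^2 × length/2, endpoint reached at 2000 mm^3 tumor volume.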 The conditions noted are these: Azacitidine 5.5 mg/kg, iv, bi-weekly; for Tumor volume: individual animal.

`Nc1ncn([C@@H]2O[C@H](CO)[C@@H](O)[C@H]2O)c(=O)n1` [azacitidine]: for the setting “TTE for individual animal”, the TTE is 14.4 and 17 and 17.1 and 17.2 and 17.4 and 17.6 and 17.7. Also, the Tumor volume runs as follows: (day of study 1) 108 mm3 and 126 mm3 and 144 mm3 and 172 mm3; (day of study 5) 172 mm3 and 126 mm3 and 245 mm3 and 196 mm3 and 365 mm3 and 256 mm3; (day of study 8) 500 mm3 and 365 mm3 and 405 mm3 and 700 mm3 and 288 mm3 and 650 mm3 and 726 mm3 and 550 mm3; (day of study 12) 1470 mm3 and 936 mm3 and 1183 mm3 and 1862 mm3 and 787 mm3 and 1080 mm3 and 1008 mm3 and 1152 mm3 and 1666 mm3; (day of study 15) 1913 mm3 and 1568 mm3 and 2025 mm3 and 2816 mm3 and 1268 mm3 and 1666 mm3 and 1764 mm3 and 3240 mm3; (day of study 19) 2025 mm3 and 2432 mm3 and 2176 mm3 and 2138 mm3 and 2250 mm3.
